Data on 10 compounds can be found in PubChem BioAssay (NCI).

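How tested: cells in 96-well plates exposed to compound for 48 hours at five concentrations. The concentration for 50% growth inhibition is given as GI50. TGI: concentration producing complete growth inhibition.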

Among the test systems are A498 renal; ACHN renal; HOP-92 NSCLC; HT29 colon; K-562 leukemia; NCI-H226 lung; NCI-H23 lung; UACC-257 melanoma; UO-31 renal; NCI-H522 lung.
Common to all, as to assay: NCI-60 cell line screen, 48 h

In the case of `CC1=C(O)c2cn(C)cc2C(=O)C1=O`, the TGI with A498 renal, in the assay with ACHN renal, in the assay on HOP-92 NSCLC, with HT29 colon, with K-562 leukemia and in the assay on NCI-H226 lung was greater than 100 µM in each case. The TGI in the assay with NCI-H23 lung, with UACC-257 melanoma and in the assay on UO-31 renal was greater than 100 µM each time.
Regarding `CC[C@@H]1[C@@H](C)O[C@@](O)([C@@H](C)[C@H](O)[C@H](C)[C@H]2OC(=O)/C=C/C=C/[C@H](C)[C@@H]([C@@H](C)[C@@H](O)[C@H](C)[C@@]3(O)C[C@@H](O[C@H]4C[C@@H](O)[C@H](O)C(C)O4)[C@H](CC)[C@@H](C)O3)OC(=O)/C=C/C=C/[C@@H]2C)C[C@H]1O[C@@H]1C[C@@H](O)[C@H](O)C(C)O1` (some centres not stated), the GI50 with A498 renal was 0.0596 µM; in the assay on ACHN renal, 0.111 µM; in the assay with HOP-92 NSCLC, 0.0381 µM; with HT29 colon, 0.109 µM; in the assay with K-562 leukemia, 0.116 µM; in the assay with NCI-H226 lung it was 0.0655 µM. The values for the GI50 with NCI-H23 lung, with NCI-H522 lung and with UO-31 renal were 0.0655 µM, 0.0885 µM and 0.134 µM, respectively. Moreover, the TGI in the assay with A498 renal was 0.131 µM; in the assay on ACHN renal, 0.411 µM; in the assay on HOP-92 NSCLC, 0.125 µM; with HT29 colon, 0.389 µM; in the assay on K-562 leukemia, 0.378 µM; in the assay on NCI-H226 lung, 0.139 µM. The TGI turned out to be 0.149 µM in the assay with NCI-H23 lung, 0.303 µM with NCI-H522 lung and 0.583 µM in the assay on UO-31 renal.
With `CSc1ccc(-c2ccccc(=O)c2O)cc1`, the GI50 is 2.71 µM with A498 renal; 0.397 µM in the assay on ACHN renal; 1.61 µM in the assay on HOP-92 NSCLC; 0.714 µM with HT29 colon; 0.447 µM in the assay on K-562 leukemia; 1.68 µM in the assay with NCI-H226 lung. The GI50 is 0.688 µM in the assay on NCI-H23 lung, 0.47 µM in the assay on NCI-H522 lung, 0.749 µM in the assay with UACC-257 melanoma and 0.351 µM with UO-31 renal. For the same compound, the TGI in the assay on A498 renal was 19 µM; in the assay on ACHN renal it was 71.1 µM; in the assay with HOP-92 NSCLC, 73.3 µM; in the assay on HT29 colon it was greater than 100 µM; in the assay with K-562 leukemia, greater than 100 µM; in the assay on NCI-H226 lung it was 37 µM. Besides, the TGI with NCI-H23 lung is 28.3 µM; in the assay with NCI-H522 lung it was 55.9 µM; in the assay with UACC-257 melanoma, greater than 100 µM; in the assay with UO-31 renal, 5.2 µM.
Take `CCOC(=O)c1ccc2c(c1)Cc1cc([N+](=O)[O-])ccc1-2`: the TGI with A498 renal was greater than 100 µM; in the assay with ACHN renal, greater than 100 µM; in the assay on HOP-92 NSCLC, greater than 100 µM; in the assay on HT29 colon it was 86.4 µM; with K-562 leukemia it was greater than 100 µM; with NCI-H226 lung, 51.2 µM. Also, the TGI with NCI-H23 lung, in the assay with UACC-257 melanoma and in the assay on UO-31 renal was greater than 100 µM throughout.
With `N.N.NCCCCCN.O=C([O-])CCl.O=C([O-])CCl.O=C([O-])CCl.O=C([O-])CCl.[Pt+4].[Pt+4]`, the GI50 with A498 renal is 11 µM; in the assay on ACHN renal it was 3.39 µM; in the assay with HOP-92 NSCLC, 23.7 µM; in the assay with HT29 colon, 9.87 µM; in the assay on K-562 leukemia it was 37.2 µM; in the assay on NCI-H226 lung, 0.857 µM. For the same compound, the GI50 in the assay on NCI-H522 lung is 3.3 µM; in the assay on UACC-257 melanoma, 9.12 µM; in the assay with UO-31 renal it was 4.23 µM. Besides, the TGI with A498 renal was 31.2 µM; in the assay with ACHN renal, 29.9 µM; in the assay on HOP-92 NSCLC, 51.6 µM; in the assay with HT29 colon, 42.4 µM; in the assay with K-562 leukemia, greater than 100 µM; in the assay on NCI-H226 lung, 3.9 µM. The TGI was determined as 73.8 µM in the assay on NCI-H522 lung, 94.6 µM in the assay with UACC-257 melanoma and 17.9 µM in the assay with UO-31 renal.
Regarding `CC12OOC(c3ccccc31)c1c2ccc2ccccc12` (configuration not stated), the TGI is 32.1 µM in the assay with A498 renal; 3.51 µM in the assay on ACHN renal; 9.94 µM with HOP-92 NSCLC; 6.02 µM in the assay with HT29 colon; 3.58 µM in the assay on K-562 leukemia; 39.3 µM in the assay on NCI-H226 lung. Also, the TGI in the assay with NCI-H23 lung was found to be 26.6 µM; with NCI-H522 lung, 1.99 µM; in the assay with UACC-257 melanoma, 26.8 µM; in the assay with UO-31 renal, 23.2 µM.
As for `COc1ccccc1NC(=O)C1=C(C)NC(C)=C(C(=O)Nc2ccccc2OC)C1C1=CC=COC1`, the TGI was 45.4 µM in the assay on A498 renal; greater than 100 µM with ACHN renal; 83.8 µM in the assay on HOP-92 NSCLC; 62.7 µM in the assay on HT29 colon; 26 µM in the assay with K-562 leukemia; greater than 100 µM in the assay on NCI-H226 lung. In addition, the TGI was greater than 100 µM in the assay with NCI-H23 lung, 68.3 µM in the assay with UACC-257 melanoma and greater than 100 µM in the assay on UO-31 renal.
In the case of `COC(=O)CCC(NC(=S)N/N=C/c1ccccn1)C(=O)OC` (configuration not stated), the TGI with A498 renal, with ACHN renal, in the assay with HOP-92 NSCLC, in the assay with HT29 colon, in the assay on K-562 leukemia and with NCI-H226 lung was greater than 100 µM in each case. In addition, the TGI in the assay on NCI-H23 lung, with NCI-H522 lung, in the assay on UACC-257 melanoma and with UO-31 renal was greater than 100 µM each time.
As to `C=C(C)C1CC/C(C)=C/CCC2(C)OC2CC/C(CO)=C\C1O` (configuration not stated), the TGI in the assay on A498 renal, with ACHN renal, in the assay on HOP-92 NSCLC, in the assay on HT29 colon, in the assay on K-562 leukemia and in the assay with NCI-H226 lung was greater than 100 µM each time. Besides, the TGI in the assay on NCI-H23 lung, with UACC-257 melanoma and with UO-31 renal was greater than 100 µM in each case.
Take `C=CCC(N[C@@H](CO)c1ccccc1)c1cn(Cc2ccccc2Cl)c(=O)n(Cc2ccccc2Cl)c1=O` (some centres not stated): the GI50 in the assay on A498 renal is 13.5 µM; in the assay on ACHN renal it was greater than 100 µM; with HOP-92 NSCLC, greater than 100 µM; in the assay with HT29 colon, greater than 100 µM; with K-562 leukemia, greater than 100 µM; in the assay with NCI-H226 lung, greater than 100 µM. The GI50 with NCI-H23 lung, with NCI-H522 lung, in the assay on UACC-257 melanoma and in the assay with UO-31 renal was greater than 100 µM in each case. Also, the TGI with A498 renal, in the assay with ACHN renal, with HOP-92 NSCLC, in the assay on HT29 colon, in the assay with K-562 leukemia and with NCI-H226 lung was greater than 100 µM each time. Moreover, the TGI in the assay with NCI-H23 lung, in the assay on NCI-H522 lung, in the assay on UACC-257 melanoma and in the assay on UO-31 renal was greater than 100 µM each time.
